In the test the target is Bromodomain testis-specific protein (Homo sapiens, UniProt Q58F21). Kind of test: Binding affinity to human partial length BRDT bromodomain 1 (N21 to E137 residues) expressed in bacterial expression system by BROMOscan assay.

For the molecule `Cc1sc2c(c1C)C(c1ccc(Cl)cc1)=N[C@@H](CC(=O)NCCCCNC(=O)COc1cccc3c1C(=O)N(C1CCC(=O)NC1=O)C3=O)c1nnc(C)n1-2` (stereo partly specified), the dissociation constant Kd lay in the range of 6 to 19 nM.

The values are drawn from ChEMBL document CHEMBL4627273, “BET proteins: Investigating BRDT as a potential target for male contraception” (Bioorg Med Chem Lett, 2020).
